Assay results: patent US20220117993A1, “Compounds Useful in HIV Therapy” (GlaxoSmithKline Intellectual Property (No. 2) Limited, priority 2018, published 2022)
pIC50: −log10 of the molar value.

Assays:
[1] = tested on: wild-type NL4-3 replication defective pseudovirus (PSV); test: microbe, parasite or virus in culture; format: cell-based; details: NL43, 72 h, U373 cells expressing human CD4 and CXCR4 or CCR5, luciferase signal after 3 days, mean IC50, read-out: WT IC50
[2] = tested on: PSV with methionine 184 to valine (M184V) substitution in the reverse transcriptase gene; test: microbe, parasite or virus in culture; format: cell-based, HIV; details: Human immunodeficiency virus 1, 72 h, read-out: M184V IC50

| Compound | pIC50 [1] | pIC50 [2] |
| --- | --- | --- |
| C#C[C@]1(CO)O[C@@H](n2cnc3c(NC(=O)OCC)nc(F)nc32)C[C@@H]1OC(=O)CCCCCCCCC [Example 8, (2R,3S,5R)-5-(6-((ethoxycarbonyl)amino)-2-fluoro-9H-purin-9-yl)-2-ethynyl-2-(hydroxymethyl)tetrahydrofuran-3-yl decanoate] | 6.78 | 6.34 |
| C#C[C@]1(CO)O[C@@H](n2cnc3c(N)nc(F)nc32)C[C@@H]1OC(=O)C(CCCC)CCCCCC (stereo partly drawn) [Example 17, (2R,3S,5R)-5-(6-amino-2-fluoro-9H-purin-9-yl)-2-ethynyl-2-(hydroxymethyl)tetrahydrofuran-3-yl 2-butyloctanoate] | 6.84 | 6.22 |
| C#C[C@]1(CO)O[C@@H](n2cnc3c(NC(=O)CCC)nc(F)nc32)C[C@@H]1OC(=O)CCC [Example 26, (2R,3S,5R)-5-(6-butyramido-2-fluoro-9H-purin-9-yl)-2-ethynyl-2-(hydroxymethyl)tetrahydrofuran-3-yl butyrate] | 6.99 | 6.33 |
| C#C[C@]1(COC(=O)OCC)O[C@@H](n2cnc3c(N)nc(F)nc32)C[C@@H]1OC(=O)CCCCCCCCCCCCCCCCC [Example 24, (2R,3S,5R)-5-(6-amino-2-fluoro-9H-purin-9-yl)-2-(((ethoxycarbonyl)oxy)methyl)-2-ethynyltetrahydrofuran-3-yl stearate] | 5.90 | 5.67 |
| C#C[C@]1(CO)O[C@@H](n2cnc3c(N)nc(F)nc32)C[C@@H]1OC(=O)C(C)(C)CCC [Example 18, (2R,3S,5R)-5-(6-amino-2-fluoro-9H-purin-9-yl)-2-ethynyl-2-(hydroxymethyl)tetrahydrofuran-3-yl 2,2-dimethylpentanoate] | 7.33 | 6.77 |
| C#C[C@]1(CO)O[C@@H](n2cnc3c(N)nc(F)nc32)C[C@@H]1OC(=O)C(C)CCCCC (stereo partly drawn) [Example 11, (2R,3S,5R)-5-(6-amino-2-fluoro-9H-purin-9-yl)-2-ethynyl-2-(hydroxymethyl)tetrahydrofuran-3-yl 2-methylheptanoate] | 8.54 | 7.77 |
| C#C[C@]1(CO)O[C@@H](n2cnc3c(N)nc(F)nc32)C[C@@H]1OC(=O)[C@H]1CC[C@H](CCCCC)CC1 [Example 12, (2R,3S,5R)-5-(6-amino-2-fluoro-9H-purin-9-yl)-2-ethynyl-2-(hydroxymethyl)tetrahydrofuran-3-yl (1s,4S)-4-pentylcyclohexane-1-carboxylate] | 8.74 | 7.97 |
| C#C[C@]1(CO)O[C@@H](n2cnc3c(N)nc(F)nc32)C[C@@H]1OC(=O)[C@H]1CC[C@H](C(C)(C)C)CC1 [Example 22, (2R,3S,5R)-5-(6-amino-2-fluoro-9H-purin-9-yl)-2-ethynyl-2-(hydroxymethyl)tetrahydrofuran-3-yl (1r,4S)-4-(tert-butyl)cyclohexane-1-carboxylate] | 8.59 | 8.03 |
| C#C[C@]1(CO)O[C@@H](n2cnc3c(NC(=O)CCCCCC)nc(F)nc32)C[C@@H]1OC(=O)CCCCCC [Example 25, (2R,3S,5R)-2-ethynyl-5-(2-fluoro-6-heptanamido-9H-purin-9-yl)-2-(hydroxymethyl)tetrahydrofuran-3-yl heptanoate] | 8.03 | 7.36 |
| C#C[C@]1(CO)O[C@@H](n2cnc3c(N)nc(F)nc32)C[C@@H]1OC(=O)CCCCCCCCC [Example 3, (2R,3S,5R)-5-(6-amino-2-fluoro-9H-purin-9-yl)-2-ethynyl-2-(hydroxymethyl)tetrahydrofuran-3-yl decanoate] | 8.89 | 8.15 |
| C#C[C@]1(CO)O[C@@H](n2cnc3c(N)nc(F)nc32)C[C@@H]1OC(=O)C(CCC)CCC [Example 5, (2R,3S,5R)-5-(6-amino-2-fluoro-9H-purin-9-yl)-2-ethynyl-2-(hydroxymethyl)tetrahydrofuran-3-yl 2-propylpentanoate] | 7.45 | 6.77 |
| C#C[C@]1(CO)O[C@@H](n2cnc3c(N)nc(F)nc32)C[C@@H]1OC(=O)CCC [Example 20, (2R,3S,5R)-5-(6-amino-2-fluoro-9H-purin-9-yl)-2-ethynyl-2-(hydroxymethyl)tetrahydrofuran-3-yl butyrate] | 7.56 | 6.91 |
| C#C[C@]1(CO)O[C@@H](n2cnc3c(N)nc(F)nc32)C[C@@H]1OC(=O)C(C)(C)C [Example 13, (2R,3S,5R)-5-(6-amino-2-fluoro-9H-purin-9-yl)-2-ethynyl-2-(hydroxymethyl)tetrahydrofuran-3-yl pivalate] | 6.58 | 5.89 |
| C#C[C@]1(COC(=O)OCC)O[C@@H](n2cnc3c(N)nc(F)nc32)C[C@@H]1OC(=O)CCCCCCCCC [Example 9, (2R,3S,5R)-5-(6-amino-2-fluoro-9H-purin-9-yl)-2-(((ethoxycarbonyl)oxy)methyl)-2-ethynyltetrahydrofuran-3-yl decanoate] | 7.94 | 7.28 |
| C#C[C@]1(CO)O[C@@H](n2cnc3c(N)nc(F)nc32)C[C@@H]1OC(=O)c1ccccc1 [Example 19, (2R,3S,5R)-5-(6-amino-2-fluoro-9H-purin-9-yl)-2-ethynyl-2-(hydroxymethyl)tetrahydrofuran-3-yl benzoate] | 7.39 | 6.70 |
| C#C[C@]1(CO)O[C@@H](n2cnc3c(N)nc(F)nc32)C[C@@H]1OC(=O)CCCCCC [Example 4, (2R,3S,5R)-5-(6-amino-2-fluoro-9H-purin-9-yl)-2-ethynyl-2-(hydroxymethyl)tetrahydrofuran-3-yl heptanoate] | 8.39 | 7.62 |
| C#C[C@]1(CO)O[C@@H](n2cnc3c(N)nc(F)nc32)C[C@@H]1OC(=O)C1CCCCC1 [Example 16, (2R,3S,5R)-5-(6-amino-2-fluoro-9H-purin-9-yl)-2-ethynyl-2-(hydroxymethyl)tetrahydrofuran-3-yl cyclohexanecarboxylate] | 8.41 | 7.72 |
| C#C[C@]1(COC(=O)OCCCCCC)O[C@@H](n2cnc3c(N)nc(F)nc32)C[C@@H]1OC(=O)CCCCCCCCCCCCC [Example 23, (2R,3S,5R)-5-(6-amino-2-fluoro-9H-purin-9-yl)-2-ethynyl-2-((((hexyloxy)carbonyl)oxy)methyl)tetrahydrofuran-3-yl tetradecanoate] | 5.96 | 5.95 |
| C#C[C@]1(CO)O[C@@H](n2cnc3c(N)nc(F)nc32)C[C@@H]1OC(C)=O [Example 1, (2R,3S,5R)-5-(6-amino-2-fluoro-9H-purin-9-yl)-2-ethynyl-2-(hydroxymethyl)tetrahydrofuran-3-yl acetate] | 6.98 | 6.27 |
| C#C[C@]1(CO)O[C@@H](n2cnc3c(NC(=O)CCCCCCCCCCCCC)nc(F)nc32)C[C@@H]1OC(=O)CC(C)(C)c1c(C)cc(C)cc1OC(C)=O [Example 28, (2R,3S,5R)-2-ethynyl-5-(2-fluoro-6-tetradecanamido-9H-purin-9-yl)-2-(hydroxymethyl)tetrahydrofuran-3-yl 3-(2-acetoxy-4,6-dimethylphenyl)-3-methylbutanoate] | 7.38 | 6.81 |
| C#C[C@]1(CO)O[C@@H](n2cnc3c(N)nc(F)nc32)C[C@@H]1OC(=O)C(CCCCCC)CCCCCCCC (stereo partly drawn) [Example 15, (2R,3S,5R)-5-(6-amino-2-fluoro-9H-purin-9-yl)-2-ethynyl-2-(hydroxymethyl)tetrahydrofuran-3-yl 2-hexyldecanoate] | 6.26 | 5.51 |
